Literature values as cited in patent publication US20090223408A1, “Use of Sub-Micron Copper Salt Particles in Wood Preservation” (PhibroWood, LLC, priority 2004, published 2009).
Where two headings read alike, the source gives them in different places.

Legend:
[1] = baseline about 4 mg copper per liter

For [OH][Cu][OH] [copper hydroxide, copper(II) hydroxide], the Solubility of copper (pH 4) is listed as 640 ppm, the Solubility of copper (pH 7) is listed as 2 ppm and the Solubility of copper (pH 10) is listed as “about 0.01 ppm”.

For copper citrate, the “leachate copper concentration relative to CCA baseline” value [1] is listed as “over fifteen times the baseline concentration”.
